Reference: PubChem BioAssay (NCI)
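1) Cells in 96-well plates. 2) Compound, 48 h, 5 concentrations. 3) Linear interpolation between surrounding doses. 4) Unreached endpoint = highest concentration. The concentration for full growth arrest is given as TGI.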 Starred links: 1 amine or outer side, 2 acyl side, 3 side chain; linkers in the order of their positions; H or OH if unused. Positions of bridges follow the written chain, without caps; N, C: chain ends. Non-standard residues stand in square brackets, D forms with d. Residues, ends and D or L forms follow the SMILES beside them. *: point of attachment. X3 = CC(C)C(C)C(C(=O)[*:2])N(C)[*:1]; Picolinoyl(3-OH) = O=C(c1ncccc1O)*; NMePhg = CN[CH](C(=O)O)c1ccccc1; Hyp = O=C(O)[CH]1C[CH](O)CN1; Sar = CNCC(=O)O

Key:
Assay in all cases: NCI tumour cell line growth inhibition, 48 h
HOP-18 NSCLC = system: HOP-18 NSCLC
NCI-H23 lung = system: NCI-H23 lung
NCI-H226 lung = system: NCI-H226 lung
UACC-257 melanoma = system: UACC-257 melanoma
P388/ADR leukemia = system: P388/ADR leukemia
SN12K1 renal = system: SN12K1 renal
DLD-1 colon = system: DLD-1 colon
XF 498 CNS = system: XF 498 CNS
DMS 273 small cell lung = system: DMS 273 small cell lung
KM20L2 colon = system: KM20L2 colon
M19-MEL melanoma = system: M19-MEL melanoma
DMS 114 small cell lung = system: DMS 114 small cell lung
HOP-92 NSCLC = system: HOP-92 NSCLC
SNB-78 CNS = system: SNB-78 CNS
OVCAR-3 ovarian = system: OVCAR-3 ovarian
OVCAR-5 ovarian = system: OVCAR-5 ovarian
HOP-62 NSCLC = system: HOP-62 NSCLC
HL-60(TB) leukemia = system: HL-60(TB) leukemia
SNB-19 CNS = system: SNB-19 CNS
CCRF-CEM leukemia = system: CCRF-CEM leukemia
EKVX NSCLC = system: EKVX NSCLC
A549 NSCLC = system: A549 NSCLC
ACHN renal = system: ACHN renal
SF-539 CNS = system: SF-539 CNS
M14 melanoma = system: M14 melanoma
TK-10 renal = system: TK-10 renal
OVCAR-4 ovarian = system: OVCAR-4 ovarian
LOX IMVI melanoma = system: LOX IMVI melanoma
NCI-H460 lung = system: NCI-H460 lung
SK-MEL-5 melanoma = system: SK-MEL-5 melanoma
CAKI-1 renal = system: CAKI-1 renal
A498 renal = system: A498 renal
HCT-116 colon = system: HCT-116 colon
U251 CNS = system: U251 CNS
786-0 renal = system: 786-0 renal
NCI-H522 lung = system: NCI-H522 lung
HCT-15 colon = system: HCT-15 colon
HCC-2998 colon = system: HCC-2998 colon
RPMI-8226 leukemia = system: RPMI-8226 leukemia
RXF-631 renal = system: RXF-631 renal
COLO 205 colon = system: COLO 205 colon
SF-268 CNS = system: SF-268 CNS
KM12 colon = system: KM12 colon
SF-295 CNS = system: SF-295 CNS
K-562 leukemia = system: K-562 leukemia
SN12C renal = system: SN12C renal
SK-MEL-2 melanoma = system: SK-MEL-2 melanoma
UO-31 renal = system: UO-31 renal
OVCAR-8 ovarian = system: OVCAR-8 ovarian
HT29 colon = system: HT29 colon
UACC-62 melanoma = system: UACC-62 melanoma
SK-OV-3 ovarian = system: SK-OV-3 ovarian
SW-620 colon = system: SW-620 colon
MOLT-4 leukemia = system: MOLT-4 leukemia
SK-MEL-28 melanoma = system: SK-MEL-28 melanoma
IGROV1 ovarian = system: IGROV1 ovarian
MALME-3M melanoma = system: MALME-3M melanoma

Q: Which results are given for `CC(C)CC1NC(=O)C(NC(=O)c2ncccc2O)C(C)OC(=O)C(c2ccccc2)N(C)C(=O)C(C)NC(=O)C(C(C)C(C)C)N(C)C(=O)CN(C)C(=O)C2CC(O)CN2C1=O` (stereo unspecified) ({Picolinoyl(3-OH)}-TL[Hyp][Sar][X3]A[NMePhg]; ester 1-C; configuration not given here)?
A: TGI (HOP-18 NSCLC): > 125 µM; TGI (NCI-H23 lung): > 125 µM; TGI (NCI-H226 lung): > 125 µM; TGI (UACC-257 melanoma): > 125 µM; TGI (P388/ADR leukemia): > 125 µM; TGI (SN12K1 renal): > 125 µM; TGI (DLD-1 colon): > 125 µM; TGI (XF 498 CNS): > 120 µM; TGI (DMS 273 small cell lung): > 125 µM; TGI (KM20L2 colon): > 12.5 µM; TGI (M19-MEL melanoma): > 125 µM; TGI (DMS 114 small cell lung): > 125 µM; TGI (HOP-92 NSCLC): > 125 µM; TGI (SNB-78 CNS): > 125 µM

Q: With `COc1ccc(OCC(=O)O)c2c1CCC(C)C2=O` (stereo unspecified) as the molecule, how does the TGI (OVCAR-3 ovarian) read?
A: > 100 µM

Q: And the TGI (OVCAR-5 ovarian)?
A: > 100 µM

Q: What about the TGI (HOP-62 NSCLC) of the same molecule?
A: > 100 µM

Q: And the TGI (HL-60(TB) leukemia)?
A: > 100 µM

Q: What about the TGI (SNB-19 CNS) of the same molecule?
A: > 100 µM

Q: What about the TGI (CCRF-CEM leukemia) of the same molecule?
A: > 100 µM

Q: And the TGI (EKVX NSCLC)?
A: > 100 µM

Q: And the TGI (A549 NSCLC)?
A: > 100 µM

Q: What about the TGI (ACHN renal) of the same molecule?
A: > 100 µM

Q: What about the TGI (SF-539 CNS) of the same molecule?
A: > 100 µM

Q: What about the TGI (HOP-18 NSCLC) of the same molecule?
A: > 100 µM

Q: And the TGI (M14 melanoma)?
A: > 100 µM

Q: What about the TGI (TK-10 renal) of the same molecule?
A: > 100 µM

Q: What about the TGI (OVCAR-4 ovarian) of the same molecule?
A: > 100 µM

Q: What about the TGI (LOX IMVI melanoma) of the same molecule?
A: > 100 µM

Q: And the TGI (NCI-H460 lung)?
A: > 100 µM

Q: And the TGI (SK-MEL-5 melanoma)?
A: > 100 µM

Q: What about the TGI (CAKI-1 renal) of the same molecule?
A: > 100 µM

Q: What about the TGI (UACC-257 melanoma) of the same molecule?
A: > 100 µM

Q: What about the TGI (A498 renal) of the same molecule?
A: > 100 µM

Q: What about the TGI (HCT-116 colon) of the same molecule?
A: > 100 µM

Q: What about the TGI (U251 CNS) of the same molecule?
A: > 100 µM

Q: What about the TGI (786-0 renal) of the same molecule?
A: > 100 µM

Q: What about the TGI (DLD-1 colon) of the same molecule?
A: > 100 µM

Q: What about the TGI (NCI-H522 lung) of the same molecule?
A: > 100 µM

Q: What about the TGI (HCT-15 colon) of the same molecule?
A: > 100 µM

Q: What about the TGI (HCC-2998 colon) of the same molecule?
A: > 100 µM

Q: And the TGI (RPMI-8226 leukemia)?
A: > 100 µM

Q: What about the TGI (RXF-631 renal) of the same molecule?
A: > 100 µM

Q: What about the TGI (XF 498 CNS) of the same molecule?
A: > 100 µM

Q: And the TGI (COLO 205 colon)?
A: > 100 µM

Q: What about the TGI (SF-268 CNS) of the same molecule?
A: > 100 µM

Q: And the TGI (DMS 273 small cell lung)?
A: > 100 µM

Q: And the TGI (KM12 colon)?
A: > 100 µM

Q: And the TGI (KM20L2 colon)?
A: > 100 µM

Q: What about the TGI (SF-295 CNS) of the same molecule?
A: > 100 µM

Q: What about the TGI (K-562 leukemia) of the same molecule?
A: > 100 µM

Q: What about the TGI (SN12C renal) of the same molecule?
A: > 100 µM

Q: And the TGI (SK-MEL-2 melanoma)?
A: > 100 µM

Q: What about the TGI (UO-31 renal) of the same molecule?
A: > 100 µM

Q: And the TGI (M19-MEL melanoma)?
A: > 100 µM

Q: And the TGI (OVCAR-8 ovarian)?
A: > 100 µM

Q: What about the TGI (HT29 colon) of the same molecule?
A: > 100 µM

Q: And the TGI (UACC-62 melanoma)?
A: > 100 µM

Q: And the TGI (DMS 114 small cell lung)?
A: > 100 µM

Q: What about the TGI (SK-OV-3 ovarian) of the same molecule?
A: > 100 µM

Q: What about the TGI (SW-620 colon) of the same molecule?
A: > 100 µM

Q: What about the TGI (MOLT-4 leukemia) of the same molecule?
A: > 100 µM

Q: And the TGI (SK-MEL-28 melanoma)?
A: > 100 µM

Q: What about the TGI (SNB-78 CNS) of the same molecule?
A: > 100 µM

Q: And the TGI (IGROV1 ovarian)?
A: > 100 µM

Q: What about the TGI (MALME-3M melanoma) of the same molecule?
A: > 100 µM
